Test results: patent US20100267561A1, “HERBICIDAL PYRIDAZINONE DERIVATIVES” (priority 2007, published 2010)

Legend:
Format in all cases: in vivo
rice (Oryza sativa) = test: Test B flooded paddy test plant response
How it was run: (§1)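 Compounds were added directly to paddy water over 2-leaf-stage plants in pots flooded 3 cm above soil, water depth maintained. Visual injury scored against controls after 13 to 15 days in greenhouse, 0 (none) to 100 (complete control); dash indicates no result.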

[1] = system: barnyardgrass (Echinochloa crus-galli); test: Test B flooded paddy test plant response
How it was run: as §1

[2] = system: common (oilseed) sunflower (Helianthus annuus); test: Test B pre-/postemergence plant response; settings: Preemergence
How it was run: (§2)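 Visual scoring from 0 (no effect) to 100 (complete control) against untreated controls was done 13 to 15 days after greenhouse treatment. Chemicals were formulated in a surfactant-containing non-phytotoxic solvent and applied to soil preemergence or to 1- to 4-leaf (2-18 cm) plants postemergence.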

[3] = system: blackgrass (Alopecurus myosuroides); test: Test B pre-/postemergence plant response; settings: for Blackgrass plant response rating: 8 g ai/ha
How it was run: as §2

[4] = system: downy bromegrass (Bromus tectorum); test: Test B pre-/postemergence plant response; settings: for Bromegrass, Downy plant response rating: 8 g ai/ha
How it was run: as §2

wild oat (Avena fatua) = test: Test B pre-/postemergence plant response; settings: for Oat, Wild plant response rating: 8 g ai/ha
How it was run: as §2

[5] = system: morningglory (Ipomoea coccinea); test: Test B pre-/postemergence plant response; settings: for Morningglory plant response rating: 8 g ai/ha
How it was run: as §2

[6] = system: large crabgrass (Digitaria sanguinalis); test: Test B pre-/postemergence plant response; settings: for Crabgrass, Large plant response rating: 8 g ai/ha
How it was run: as §2

[7] = system: johnsongrass (Sorghum halepense); test: Test B pre-/postemergence plant response; settings: for Johnsongrass plant response rating: 8 g ai/ha
How it was run: as §2

[8] = system: pigweed (Amaranthus retroflexus); test: Test B pre-/postemergence plant response; settings: for Pigweed plant response rating: 8 g ai/ha
How it was run: as §2

[9] = system: common ragweed (Ambrosia elation); test: Test B pre-/postemergence plant response; settings: for Ragweed plant response rating: 8 g ai/ha
How it was run: as §2

[10] = system: Italian ryegrass (Lolium multiflorum); test: Test B pre-/postemergence plant response; settings: for Ryegrass, Italian plant response rating: 8 g ai/ha
How it was run: as §2

[11] = system: catchweed bedstraw (Galium aparine); test: Test B pre-/postemergence plant response; settings: Preemergence
How it was run: as §2

[12] = system: eastern black (E.B.) nightshade (Solanum ptycanthum); test: Test B pre-/postemergence plant response; settings: Preemergence
How it was run: as §2

[13] = Flood (flooded paddy test), 62 g ai/ha, scale 0 to 100, 0 no effect, 100 complete control
[14] = Flood (flooded paddy test), 125 g ai/ha, scale 0 to 100, 0 no effect, 100 complete control
[15] = Flood (flooded paddy test), 250 g ai/ha, scale 0 to 100, 0 no effect, 100 complete control
[16] = Flood, 31 g ai/ha, scale 0 to 100
[17] = 16 g ai/ha, scale 0 to 100 (0 no effect, 100 complete control)
[18] = 31 g ai/ha, 0 to 100 scale, 0 no effect, 100 complete control
[19] = Postemergence, 16 g ai/ha, scale 0 to 100
[20] = Postemergence, 31 g ai/ha, scale 0 to 100, 0 no effect, 100 complete control
[21] = Postemergence, 62 g ai/ha, scale 0 to 100, 0 no effect, 100 complete control
[22] = Preemergence, 16 g ai/ha, scale 0 to 100 (0 no effect, 100 complete control)
[23] = Preemergence, 31 g ai/ha, 0 to 100 scale, 0 no effect, 100 complete control
[24] = Preemergence, 62 g ai/ha, scale 0 to 100

SMILES: Cc1cc(-c2ccc(Cl)cc2)nn1-c1c(OS(C)(=O)=O)cnn(C)c1=O [Compound 36]
- Plant response rating, Rice (rice (Oryza sativa); [13]): 0
- Plant response rating, Rice (rice (Oryza sativa); [14]): 0
- Plant response rating, Rice (rice (Oryza sativa); [15]): 0
- Plant response rating, Rice (rice (Oryza sativa); [16]): 0
- Plant response rating, Barnyardgrass [1, 13]: 0
- Plant response rating, Barnyardgrass [1, 14]: 0
- Plant response rating, Barnyardgrass [1, 15]: 0
- Plant response rating, Barnyardgrass [1, 16]: 0
- Plant response rating, Sunflower [2, 17]: 0
- Plant response rating, Sunflower [2, 18]: 0
- Plant response rating, Sunflower ([2]; 62 g ai/ha, scale 0 to 100): 0
- Sunflower plant response rating ([2]; 8 g ai/ha, scale 0 to 100): 0
- Blackgrass plant response rating ([3]; postemergence, 0-100 scale): 0
- Plant response rating, Blackgrass [3, 19]: 50
- Plant response rating, Blackgrass [3, 20]: 50
- Plant response rating, Blackgrass [3, 21]: 80
- Plant response rating, Blackgrass [3, 22]: 80
- Plant response rating, Blackgrass [3, 23]: 100
- Plant response rating, Blackgrass [3, 24]: 100
- Blackgrass plant response rating ([3]; Preemergence, scale 0 to 100): 80
- Bromegrass, Downy plant response rating ([4]; postemergence, 0-100 scale): 0
- Plant response rating, Bromegrass, Downy [4, 19]: 5
- Plant response rating, Bromegrass, Downy [4, 20]: 40
- Plant response rating, Bromegrass, Downy [4, 21]: 50
- Plant response rating, Bromegrass, Downy [4, 22]: 50
- Plant response rating, Bromegrass, Downy [4, 23]: 50
- Plant response rating, Bromegrass, Downy [4, 24]: 90
- Bromegrass, Downy plant response rating ([4]; Preemergence, scale 0 to 100): 0
- Oat, Wild plant response rating (wild oat (Avena fatua); postemergence, 0-100 scale): 0
- Plant response rating, Oat, Wild (wild oat (Avena fatua); [19]): 50
- Plant response rating, Oat, Wild (wild oat (Avena fatua); [20]): 60
- Plant response rating, Oat, Wild (wild oat (Avena fatua); [21]): 90
- Plant response rating, Oat, Wild (wild oat (Avena fatua); [22]): 50
- Plant response rating, Oat, Wild (wild oat (Avena fatua); [23]): 90
- Plant response rating, Oat, Wild (wild oat (Avena fatua); [24]): 95
- Oat, Wild plant response rating (wild oat (Avena fatua); Preemergence, scale 0 to 100): 0
- Morningglory plant response rating ([5]; postemergence, 0-100 scale): 0
- Plant response rating, Morningglory [5, 19]: 0
- Plant response rating, Morningglory [5, 20]: 0
- Plant response rating, Morningglory [5, 21]: 0
- Plant response rating, Morningglory [5, 22]: 0
- Plant response rating, Morningglory [5, 23]: 0
- Plant response rating, Morningglory [5, 24]: 0
- Morningglory plant response rating ([5]; Preemergence, scale 0 to 100): 0
- Crabgrass, Large plant response rating ([6]; postemergence, 0-100 scale): 50
- Plant response rating, Crabgrass, Large [6, 19]: 65
- Plant response rating, Crabgrass, Large [6, 20]: 90
- Plant response rating, Crabgrass, Large [6, 21]: 100
- Plant response rating, Crabgrass, Large [6, 22]: 98
- Plant response rating, Crabgrass, Large [6, 23]: 100
- Plant response rating, Crabgrass, Large [6, 24]: 100
- Crabgrass, Large plant response rating ([6]; Preemergence, scale 0 to 100): 98
- Johnsongrass plant response rating ([7]; postemergence, 0-100 scale): 0
- Plant response rating, Johnsongrass [7, 19]: 50
- Plant response rating, Johnsongrass [7, 20]: 95
- Plant response rating, Johnsongrass [7, 21]: 100
- Plant response rating, Johnsongrass [7, 23]: 40
- Plant response rating, Johnsongrass [7, 24]: 100
- Johnsongrass plant response rating ([7]; Preemergence, scale 0 to 100): 0
- Pigweed plant response rating ([8]; postemergence, 0-100 scale): 0
- Plant response rating, Pigweed [8, 19]: 0
- Plant response rating, Pigweed [8, 20]: 0
- Plant response rating, Pigweed [8, 21]: 0
- Plant response rating, Pigweed [8, 22]: 0
- Plant response rating, Pigweed [8, 23]: 0
- Plant response rating, Pigweed [8, 24]: 0
- Pigweed plant response rating ([8]; Preemergence, scale 0 to 100): 0
- Ragweed plant response rating ([9]; postemergence, 0-100 scale): 0
- Plant response rating, Ragweed [9, 19]: 0
- Plant response rating, Ragweed [9, 20]: 0
- Plant response rating, Ragweed [9, 21]: 0
- Plant response rating, Ragweed [9, 22]: 0
- Plant response rating, Ragweed [9, 23]: 0
- Plant response rating, Ragweed [9, 24]: 0
- Ragweed plant response rating ([9]; Preemergence, scale 0 to 100): 0
- Ryegrass, Italian plant response rating ([10]; postemergence, 0-100 scale): 10
- Plant response rating, Ryegrass, Italian [10, 19]: 30
- Plant response rating, Ryegrass, Italian [10, 20]: 65
- Plant response rating, Ryegrass, Italian [10, 21]: 95
- Plant response rating, Ryegrass, Italian [10, 22]: 98
- Plant response rating, Ryegrass, Italian [10, 23]: 100
- Plant response rating, Ryegrass, Italian [10, 24]: 100
- Ryegrass, Italian plant response rating ([10]; Preemergence, scale 0 to 100): 20
- Plant response rating, Galium [11, 17]: 0
- Plant response rating, Galium [11, 18]: 0
- Plant response rating, Galium ([11]; 62 g ai/ha, scale 0 to 100): 0
- Galium plant response rating ([11]; 8 g ai/ha, scale 0 to 100): 0
- Plant response rating, Nightshade, E. B. [12, 17]: 0
- Plant response rating, Nightshade, E. B. [12, 18]: 0
- Plant response rating, Nightshade, E. B. ([12]; 62 g ai/ha, scale 0 to 100): 0
- Nightshade, E. B. plant response rating ([12]; 8 g ai/ha, scale 0 to 100): 0
